Results from patent publication US5073566A, “Angiotensin II antagonist 1,3-imidazoles and use thereas” (Eli Lilly and Company, priority 1989, dated 1991).
Structures can show the parent of a compound that is named as a salt. Where two headings read alike, the source gives them in different places.

What was measured:
angiotensin II receptor = experiment: Adrenal Glomerulosa Test System: I125-angiotensin II binding to adrenal membranes; conditions: percent inhibition of I125 angiotensin binding at 10^-5 M of antagonist; rat adrenal membranes; 0.1 nM I125-angiotensin II
Experimental: The ability for compounds of Formula I to block angiotensin II receptor binding was determined using the adrenal glomerulosa assay.
Binding of I^125 -angiotensin II to adrenal membranes was routinely carried out in 96-well filtration plates. Adrenal membranes were prepared from the capsular portion (glomerulosal layer attached) of rat adrenal glands by differential centrifugation. Briefly, capsules were homogenized in a solution containing sucrose, 250 mM; MgCl2, 1 mM; and tris, 5 mM at pH 7.5 and 4° C. using a polytron at setting 5 for 20 seconds. The homogenate was stirred, gently, for 15 minutes at 4° C. and then centrifuged 10 minutes, at 1000×g, 4° C. The supernatant was centrifuged 30 minutes, at 30,000 ×g, 4° C. and the resulting pellet resuspended in 50 mM tris. Membrane preparations were stored in aliquots at -70° C. until used. Binding of I^125 -angiotensin II to adrenal membranes was performed at room temperature for 90 minutes in 96-well plates containing a hydrophilic polyvinylidene fluoride membrane (0.45 μm, millipore-GV multiscreen). Each 250 μl incubate contained the following (final concentration): tris, 50 mM; NaCl, 120 mM; MgCl2, 5 mM; dithiothrietol 1 mM; bovine serum albumin, 0.05%; I^125 -angiotensin II, 0.1 nM; and adrenal membrane protein, 8-15 μg. Antagonists were added in concentrations from 10 nM to 100 μM. Non-specific binding was measured in the presence of 0.1 μM Sar1, Ile8 angiotensin II. Binding was terminated by vacuum filtration. Receptor-ligand complex trapped on filters was washed 3 times with 300 μl ice-cold wash solution (tris, 50 mM; NaCl, 120 mM; MgCl2, 5 mM; dithiothrietol, 1 mM). Filter discs were dried, punched out and counted in a gamma counter at 52% efficiency. Specific binding represented 96% of total binding (approximately 150 fmol angiotensin II/mg protein). Data are expressed as the percent inhibition of I^125 angiotensin binding at 10^-5 M of antagonist.

[1] = biological target: T1, angiotensin-induced vasoconstriction (rabbit aorta) (Oryctolagus cuniculus, UniProt P34976); experiment: Rabbit Aorta Test System: antagonism of angiotensin II-induced contraction of aortic rings; format: cell-based, New Zealand white rabbits
T1 construct: the thoracic aortas were removed and cleaned of excess fat and connective tissue; from tissue; host or cells: thoracic aorta rings of New Zealand white rabbits
T1 sequence (P34976 1-359): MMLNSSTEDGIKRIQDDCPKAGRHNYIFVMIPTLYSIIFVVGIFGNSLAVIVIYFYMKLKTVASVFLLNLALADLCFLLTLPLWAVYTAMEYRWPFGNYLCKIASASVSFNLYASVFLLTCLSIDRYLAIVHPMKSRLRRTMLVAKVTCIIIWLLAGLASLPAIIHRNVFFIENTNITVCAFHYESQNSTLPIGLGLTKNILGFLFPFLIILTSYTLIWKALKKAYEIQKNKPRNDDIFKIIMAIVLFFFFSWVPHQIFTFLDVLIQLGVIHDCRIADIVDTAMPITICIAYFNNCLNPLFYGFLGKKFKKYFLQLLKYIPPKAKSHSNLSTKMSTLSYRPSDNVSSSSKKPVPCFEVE
Experimental: The ability to antagonize angiotensin-induced vasoconstriction was evaluated in the rabbit aorta test system.
New Zealand white rabbits (Hazelton, 2-3 kg) were sacrificed by cervical dislocation and the thoracic aortas were removed and cleaned of excess fat and connective tissue. Rings of tissue (3 mm wide) were mounted in 10 ml tissue baths between 2 L-shaped stainless steel hooks. The lower hook was attached to a stationary rod and the upper hook to a force displacement transducer (Grass model FT.03). The bath chambers were maintained at 37° C., aerated with 95% O2 /5% CO2, and contained physiological solution of the following composition (mM): NaCl, 117; glucose, 5.6; NaH2 PO4, 1.0; MgSO4, 0.7; KCl, 5.2; CaCl2, 1.8; NaHCO3, 26; and phentolamine HCl, 0.003.
Rings were equilibrated for 1 hour with 2 g of tension. During the equilibration period, the tissues were washed by overflow every 15 minutes. Rings were then exposed to 10^-8 M angiotensin II (AII) and were allowed to contract until a steady state was reached. Tissues were then washed every 15 minutes for 1 hour. This was repeated every hour until the AII response stabilized. A cumulative concentration-response curve to AII (10^-10 to 10^-7 M) was then obtained. At the conclusion of the concentration-response curve, tissues were washed every 2 minutes until baseline tension was reached, then every 15 minutes for 30 minutes. Compounds were added in a volume of 10 μl DMSO and allowed to incubate for 30 minutes before repeating the concentration-response curve to AII. Contractions to AII were expressed as a percent of the maximum contraction obtained in the control curve (the first AII concentration-response curve). EC50 's (concentration that contracted the tissues to 1/2 the control maximum) for each curve were calculated using a 4 parameter logistics model (NonLin, SAS institute).

[2] = pA2 = -log KB, KB = [molar concentration of antagonist]/[(EC50 AII with antagonist/EC50 AII without antagonist)-1], 30 min incubation, AII 10^-10 to 10^-7 M, read-out: Rabbit Aorta (pA2) (converted)

Row | Adrenal Glomerulosa (% Inhibition of Binding) (angiotensin II receptor) | Kb [1, 2] | SMILES | Kb [1]
1 | 39% | 3.31 µM | CCCCCCC(C(=O)OCC)n1cnc(NC(=O)c2ccccc2C(=O)O)c1 (stereo not drawn) [Example 5, 4-[(2-Carboxybenzoyl)amino]-α-hexyl-1H-imidazole-1-acetic acid ethyl ester] | –
2 | 25% | 18.2 µM | CCCCCCC(C(=O)OCC)c1ccc(NC(=O)c2ccccc2C(=O)O)cc1 (stereo not drawn) [Example 9, 4-[(2-Carboxybenzoyl)amino]-α-hexylbenzene-acetic acid ethyl ester] | –
3 | 57% | 2.34 µM | CCCCCCC(CC(=O)OC)n1cnc(NC(=O)c2ccccc2C(=O)O)c1 (stereo not drawn) [Example 10, 4-[(2-Carboxybenzoyl)amino]-β-hexyl-1H-imidazole-1-propanoic acid methyl ester] | –
4 | 44% | 2.51 µM | CCCCCCC(C#N)n1cnc(NC(=O)c2ccccc2C(=O)O)c1 (stereo not drawn) [Example 12, 4-[(2-Carboxybenzoyl)amino]-α-hexyl-1H-imidazole-1-acetonitrile] | –
5 | 5% | 75.9 µM | CCCCCCC(C(=O)OCC)n1cnc(NC(=O)C2c3ccccc3-c3ccccc32)c1 (stereo not shown) [Example 15, 4-[(9H-Fluoren-9-ylcarbonyl)amino]-αhexyl-1H-imidazole-1-acetic acid ethyl ester] | –
6 | 3% | 794 µM | CCCCCCC(C(=O)OCC)c1ccc(NC(=O)C2c3ccccc3-c3ccccc32)cc1 (stereo not drawn) [Example 18, 4-[(9H-Fluoren-9-ylcarbonyl)amino]-α-hexylbenzeneacetic acid ethyl ester] | –
7 | 57% | 10.2 µM | CCCCCCC(C(=O)O)n1cnc(NC(=O)C(CC)(c2ccccc2)c2ccccc2)c1 (stereo not drawn) [Example 26, α-Hexyl-4-[(1-oxo-2,2-diphenylbutyl)amino]-1H-imidazole-1-acetic acid] | –
8 | 64% | 0.141 µM | CCCCCCC(CC(=O)O)n1cnc(NC(=O)c2cccc(O)c2C(=O)O)c1.O (stereo not drawn) [Example 27, β-Hexyl-4-[(2-carboxy-3-hydroxybenzoyl)amino]-1H-imidazole-1-propanoic acid hydrate] | –
9 | 10% | 3.47 µM | CCCCCCC(C(=O)O)n1cnc(NC(=O)c2ccc(C)cc2C(=O)O)c1 (stereo not drawn) [Example 28, α-Hexyl-4-[(2-carboxy-4-methylbenzoyl)amino]-1H-imidazole-1-acetic a cid] | –
10 | – | – | CCCCCCC(C(=O)O)n1cnc(NC(=O)C(O)(c2ccccc2)c2ccccc2)c1 (stereo not drawn) [Example 29, α-Hexyl-[(hydroxydiphenylacetyl)amino]-1H-imidazole-1-acetic acid hydrochloride] | 25.7 µM
11 | 41% | – | CCCCCCC(C(=O)O)n1cnc(C(=O)NCc2ccc(O)cc2)c1.Cl (stereo not drawn) [Example 81, α-Hexyl-4-({[(4-hydroxyphenyl)methyl]-amino}carbonyl)-1H-imidazole-1-acetic acid hydrochloride] | –
12 | 62% | – | CCCCCCC(C(=O)O)n1cnc(C(=O)Nc2ccccc2O)c1.Cl (stereo not drawn) [Example 82, α-Hexyl-4-{[(2-hydroxyphenyl)amino]-carbonyl}-1H-imidazole-1-acetic acid hydrochloride] | –
13 | 22% | – | CCCCC(C(=O)O)n1cnc(C(=O)Nc2ccc(O)cc2)c1.Cl (stereo not drawn) [Example 88, α-Butyl-4-{[(4-hydroxyphenyl)amino]-carbonyl}-1H-imidazole-1-acetic acid hydrochloride] | –
14 | – | 0.24 µM | CCCCCCC(C(=O)O)n1cnc(NC(=O)c2cccc(NC(C)=O)c2C(=O)O)c1 (stereo not drawn) [Example 97, α-Hexyl-4-{[3-(acetylamino)-2-carboxybenzoyl]amino}-1H-imidazole-1-acetic acid hemihydrate] | –

Row | SMILES | Adrenal Glomerulosa (% Inhibition of Binding) (angiotensin II receptor) | Kb [1, 2] | Kb [1]
15 | CCCCCCC(C(=O)OCC)n1cnc(NC(=O)C(O)(c2ccccc2)c2ccccc2)c1 (stereo not drawn) [Example 14, α-Hexyl-4-[(diphenylhydroxyacetyl)amino]-1H-imidazole-1-acetic acid ethyl ester] | 2% | – | 55 µM
